Experiments:
APOE4/5×FAD mice = conditions: mouse, in vivo
APOE [1] = conditions: E4 pericytes, earlier work of the inventors; cited from earlier work
APOE [2] = assay: APOE expression by qRT-PCR in APOE4/4 pericytes treated with cyclosporin analogs; assay type: cell-based, human; conditions: compared with cyclosporin A and FK506
From the text: FIGS. 2A-2D show APOE expression measured by qRT-PCR in APOE4/4 pericytes following treatment with Cyclosporin A (FIG. 2A), FK506 (FIG. 2B), Cyclosporin D (FIG. 2C), Cyclosporin H (FIG. 2D). One-way ANOVA with Bonferroni's Multiple Comparison test, 6 replicates per a timepoint.
FK506 and cyclosporin A can reduce the expression of APOE in human pericytes and brain cells and reverse or prevent cerebrovascular pathologies associated with Alzheimer's Disease such as cerebral amyloid angiopathy. Both cyclosporine A and FK506 have immunosuppressant activity. […] Results showing APOE expression after APOE4 pericytes were treated with Cyclosporin analogs for two weeks are depicted in FIG. 1. Following treatment with Cyclosporin A, FK506, Cyclosporin D, Cyclosporin H, APOE expression was measured by qRT-PCR in APOE4/4 pericytes (see FIGS. 2A-2D).

SMILES: C=CC[C@@H]1/C=C(\C)C[C@H](C)C[C@H](OC)[C@H]2O[C@@](O)(C(=O)C(=O)N3CCCC[C@H]3C(=O)O[C@H](/C(C)=C/[C@@H]3CC[C@@H](O)[C@H](OC)C3)[C@H](C)[C@@H](O)CC1=O)[C@H](C)C[C@@H]2OC [FK506]
- toxicity compared to cyclosporine treated mice (APOE4/5×FAD mice): less toxicity

SMILES: O=C1C=CC(=O)C2=C1C1c3ccccc3C2c2ccccc21 [INCA6]
- APOE gene expression (APOE [1]): reduction
- APOE protein (APOE [1]): reduction

SMILES: C/C=C/C[C@@H](C)[C@@H](O)[C@H]1C(=O)N[C@@H](C(C)C)C(=O)N(C)CC(=O)N(C)[C@@H](CC(C)C)C(=O)N[C@@H](C(C)C)C(=O)N(C)[C@@H](CC(C)C)C(=O)N[C@@H](C)C(=O)N[C@H](C)C(=O)N(C)[C@@H](CC(C)C)C(=O)N(C)[C@@H](CC(C)C)C(=O)N(C)[C@@H](C(C)C)C(=O)N1C [cyclosporin D]
- kinetics of APOE expression reduction (APOE [2]): faster kinetics
- potency in reducing APOE expression (able to reduce at lower doses) (APOE [2]): significantly more potent

From patent US12201669B2, “Small molecule suppressors of APOE gene expression and cerebral vascular amyloid pathology” (Massachusetts Institute of Technology, priority 2021, dated 2025)
